# Results taken from article PMC5449446, “Metabolic Value Chemoattractants Are Preferentially Recognized at Broad Ligand Range Chemoreceptor of Pseudomonas putida KT2440” (Frontiers in Microbiology, 2017).
# System: Pseudomonas putida KT2440
# Assay: Quantitative capillary chemotaxis assay
# Type: cell-based
# Settings: 30 min, wild type KT2440
# Description: Subsequently, the cells were re-suspended in the same buffer, adjusted to an OD660 of 0.15 and 230 μl aliquots of this bacterial culture were placed into 96-well plates. For the quantitative assays, one-microliter capillary tubes (Microcaps, Drummond Scientific, Ref. […]) were heat-sealed at one end and filled with either the chemotaxis buffer (negative control) or chemotaxis buffer containing the chemoeffector. The capillaries were immersed into the bacterial suspension and incubated for 30 min at room temperature. Capillaries were subsequently removed from the bacterial suspension, rinsed with sterile water and the content expelled into 1 ml of M9 medium. Serial dilutions were plated onto LB medium (containing the appropriate antibiotics) and the number of colony forming units was determined. In all cases, data were corrected with the number of cells that swam into buffer containing capillaries.
row,SMILES,chemotactic response
1,"O=C(O)c1ccc(O)c(O)c1 [Protocatechuate, protocatechuate]",much weaker
2,"O=C(O)c1ccccc1 [Benzoate, benzoate]",much weaker
3,"O=C(O)c1ccccc1Cl [2-CBA, 2-chlorobenzoate]",did not induce a chemotactic response
4,"O=C(O)c1ccccc1O [2-HBA, 2-hydroxybenzoate]",much weaker
5,"O=C(O)[C@]1(O)C[C@@H](O)[C@@H](O)[C@H](O)C1 [Quinate, quinate]",very strong responses
6,"Nc1ccc(C(=O)O)cc1 [4-ABA, 4-aminobenzoate]",much weaker
7,"O=C(O)C1=CC(O)C(O)C(O)C1 (stereo not shown) [Shikimate, shikimate]",very strong responses

# Target: T1, PcaY_PP-LBD (Pseudomonas putida, UniProt Q88JK6)
# T1 construct: His-tag (from the pET28b vector; inferred from NdeI/BamHI cloning and HisTrap purification) (N); made in house; host or cells: Escherichia coli BL21 (DE3)
# Assay: biochemical
# Type: binding, Pseudomonas putida KT2440
# Settings: not given
# Description: Experiments were carried out at 25°C using a VP-ITC titration calorimeter (Microcal Inc., Northampton, Massachusetts). […] Obtained data were corrected with the heat changes measured for the injection of ligand into buffer. Data were normalized with the protein concentration (Bradford assay) and fitted with the “One Binding Site” model of the MicroCal version of the ORIGIN 7.0 software (OriginLab Corporation, Northampton, MA, United States), leaving all parameters floating.
# T1 sequence (Q88JK6 44-196): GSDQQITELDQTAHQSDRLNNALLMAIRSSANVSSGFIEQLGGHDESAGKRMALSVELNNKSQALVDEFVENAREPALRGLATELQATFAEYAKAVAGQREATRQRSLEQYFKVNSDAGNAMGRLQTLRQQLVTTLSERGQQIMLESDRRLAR
row,SMILES,Kd [µM]
1,"O=C(O)c1ccc(O)c(O)c1 [Protocatechuate, protocatechuate]",6.4
2,"Cc1cccc(C(=O)O)c1 [3-MBA, 3-Methylbenzoate]",32
3,"O=C(O)c1ccccc1 [Benzoate, benzoate]",90 ± 8
4,"O=C(O)C1=CC(=O)C(O)C(O)C1 (stereo not shown) [3-Dehydroshikimate, 3-dehydroshikimate]",6
5,"O=C(O)c1ccccc1O [2-HBA, 2-hydroxybenzoate]",24
6,"Cc1ccc(C(=O)O)cc1 [4-MBA, 4-Methylbenzoate]",41
7,"O=C(O)c1cccc([N+](=O)[O-])c1 [3-NBA, 3-Nitrobenzoate]",61
8,"O=C(O)[C@]1(O)C[C@@H](O)[C@@H](O)[C@H](O)C1 [Quinate, quinate]",3.7
9,"Nc1ccc(C(=O)O)cc1 [4-ABA, 4-aminobenzoate]",98
10,"O=C(O)c1ccc([N+](=O)[O-])cc1 [4-NBA, 4-Nitrobenzoate]",50
11,"O=C(O)c1ccc(O)cc1 [4-HBA, 4-hydroxybenzoate]",7.2
12,"Nc1cccc(C(=O)O)c1 [3-ABA, 3-aminobenzoate]",138
13,"Nc1ccccc1C(=O)O [2-ABA, 2-Aminobenzoate]",89
14,"COc1cc(C(=O)O)ccc1O [Vanillate, vanillate]",11
15,"O=C(O)c1cccc(Cl)c1 [3-CBA, 3-chlorobenzoate]",34
16,"O=C(O)C1=CC(O)C(O)C(O)C1 (stereo not shown) [Shikimate, shikimate]",4.4

# Same assay, conditions: ITC
SMILES,∆G [kcal/mol],∆H [kcal/mol],increase in affinity as compared to benzoate
"O=C(O)c1ccc(O)c(O)c1 [Protocatechuate, protocatechuate]",-7.08 ± 0.04,-22.9 ± 1.2,
"Cc1cccc(C(=O)O)c1 [3-MBA, 3-Methylbenzoate]",-6.12 ± 0.04,-21.9 ± 1.1,
"O=C(O)c1ccccc1 [Benzoate, benzoate]",-5.51 ± 0.06,-13.3 ± 0.5,
"O=C(O)C1=CC(=O)C(O)C(O)C1 (stereo not shown) [3-Dehydroshikimate, 3-dehydroshikimate]",-7.11 ± 0.03,-19.9 ± 0.3,
"O=C(O)c1ccccc1O [2-HBA, 2-hydroxybenzoate]",-6.30 ± 0.03,-21.0 ± 0.6,
"Cc1ccc(C(=O)O)cc1 [4-MBA, 4-Methylbenzoate]",-5.97 ± 0.12,-13.2 ± 0.9,
"O=C(O)c1cccc([N+](=O)[O-])c1 [3-NBA, 3-Nitrobenzoate]",-5.74 ± 0.06,-17.5 ± 0.3,
"O=C(O)[C@]1(O)C[C@@H](O)[C@@H](O)[C@H](O)C1 [Quinate, quinate]",-7.40 ± 0.02,-13.2 ± 0.4,
"Nc1ccc(C(=O)O)cc1 [4-ABA, 4-aminobenzoate]",-5.46 ± 0.12,-11.0 ± 0.4,
"O=C(O)c1ccc([N+](=O)[O-])cc1 [4-NBA, 4-Nitrobenzoate]",-5.86 ± 0.06,-13.8 ± 1.2,
"O=C(O)c1ccc(O)cc1 [4-HBA, 4-hydroxybenzoate]",-7.01 ± 0.08,-33.2 ± 1.4,around 12 fold
"Nc1cccc(C(=O)O)c1 [3-ABA, 3-aminobenzoate]",-5.26 ± 0.07,-16.4 ± 1.2,
"Nc1ccccc1C(=O)O [2-ABA, 2-Aminobenzoate]",-5.52 ± 0.07,-18.0 ± 1.8,
"COc1cc(C(=O)O)ccc1O [Vanillate, vanillate]",-6.70 ± 0.03,-12.8 ± 1.7,
"O=C(O)c1cccc(Cl)c1 [3-CBA, 3-chlorobenzoate]",-6.09 ± 0.03,-13.2 ± 0.3,
"O=C(O)C1=CC(O)C(O)C(O)C1 (stereo not shown) [Shikimate, shikimate]",-7.30 ± 0.1,-16.6 ± 1.1,

# Same assay, conditions: ITC at 25°C, 25 μM protein, One Binding Site model; means and SD of three experiments
row,SMILES,KD
1,"O=C(O)CC(O)C(=O)O (stereo not shown) [Malate, malate]",did not show any binding
2,Cc1ccccc1C(=O)O [2-MBA],No binding
3,"O=C(O)c1cccc(O)c1 [3-HBA, 3-hydroxybenzoate]",No Binding
4,"COc1cc(C=O)ccc1O [Vanillin, vanillin]",No binding
5,O=C(O)c1ccccc1[N+](=O)[O-] [2-NBA],No binding
6,"O=C(O)CCCCC(=O)O [Adipate, adipate]",No binding
7,"O=C(O)c1ccccc1Cl [2-CBA, 2-chlorobenzoate]",No binding
8,"O=C(O)CCC(=O)O [Succinate, succinate]",did not show any binding

# Same assay, conditions: ITC at 25°C, 25 μM protein, One Binding Site model; means and SD of three experiments; listed as adipate
row,SMILES,KD
1,"O=C(O)CCCCC(=O)O [Adipate, adipate]",No binding heats

# Same assay, conditions: ITC at 25°C, 25 μM protein, One Binding Site model; means and SD of three experiments; listed as vanillin
row,SMILES,KD
1,"COc1cc(C=O)ccc1O [Vanillin, vanillin]",absence of binding

# System: P. putida KT2440
# Assay: Growth in M9 minimal medium with ligand as sole C-source
# Type: cell-based, Pseudomonas putida KT2440
# Settings: 10 mM (2 mM for poorly soluble) ligand
# Description: P. putida KT2440R was grown in the same medium supplemented with rifampicin (10 μg ml^-1). […] When necessary, the pH of the medium was adjusted to 7.0 prior to inoculation. Bacterial growth rates were monitored by measuring the OD660 until cultures reached the stationary phase. The growth rate during the exponential growth (m) was calculated according to m = (LnOD2-LnOD1).(t2-t1)^-1, where OD2/t2 and OD1/t1 correspond to the OD660/time at the end and the beginning of the time interval. The generation time (G) was defined by G = Ln2 μ^-1. […] Normalized growth yield per carbon source after 24 h was determined applying correlation factors between cell dry weight and OD660 determined in batch cultures and assuming that all the carbon source was consumed during growth. Data were fitted by linear least squares regression or submitted to the chi-squared test with Yates correction using in both cases the Graph Pad Prism v7.02 software.
row,SMILES,capacity to support growth as sole carbon source
1,"O=C(O)c1ccc(O)c(O)c1 [Protocatechuate, protocatechuate]",supported bacterial growth
2,"O=C(O)c1ccccc1 [Benzoate, benzoate]",supported bacterial growth
3,"O=C(O)C1=CC(=O)C(O)C(O)C1 (stereo not shown) [3-Dehydroshikimate, 3-dehydroshikimate]",supported bacterial growth
4,"O=C(O)[C@]1(O)C[C@@H](O)[C@@H](O)[C@H](O)C1 [Quinate, quinate]",supported bacterial growth
5,"O=C(O)c1ccc(O)cc1 [4-HBA, 4-hydroxybenzoate]",supported bacterial growth

# Target: T1, PcaY_PP-LBD
# Assay: not given
# Parameters: species or system Pseudomonas putida KT2440
# Settings: saturating ligand (400 μM), 10°C
# Description: Experiments were performed in a Beckman Coulter Optima XL-A analytical ultracentrifuge (Beckman-Coulter, Palo Alto, CA, United States) equipped with UV-visible absorbance detection system, using an An50Ti 8-hole rotor, 12 mm path-length charcoal-filled epon double-sector centerpieces. The sedimentation velocity (SV) experiments were carried out at a rotor speed of 40,000 rpm and 10°C using 400 μl samples in analysis buffer. […] Analysis buffer with or without ligands was used as reference. […] A least squares boundary modeling of the SV data was used to calculate sedimentation coefficient distributions with the size-distribution c(s) method ([Schuck, 2000]) implemented in the SEDFIT v11.71 software. […] The multi-speed sedimentation equilibrium experiments were carried out at 10°C and 12,000, 14,000, and 18,000 rpm until equilibrium was reached. […] Generally two wavelengths were used per sample.
row,SMILES,"sedimentation coefficient s20,w of PcaY_PP-LBD in presence of ligand [S]"
1,"O=C(O)[C@]1(O)C[C@@H](O)[C@@H](O)[C@H](O)C1 [Quinate, quinate]",3.1
2,"O=C(O)C1=CC(O)C(O)C(O)C1 (stereo not shown) [Shikimate, shikimate]",3.1
